Assay results reported in patent US12077503B2, “Substituted cyclic amides and their use as herbicides” (FMC CORPORATION, priority 2015, dated 2024).

What was measured:
Assay in all cases: Test C preemergence
Type in all cases: in vivo
[1] = tested on: Galium (catchweed bedstraw, Galium aparine); settings: for Plant response rating, Galium: scale 0 to 100, 0 no effect, 100 complete control
In short: (§1)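 Visual 0 (no effect) to 100 (complete control) ratings versus controls, taken 13–15 d after treatment in the greenhouse; dash means no result. Compounds in a surfactant-containing non-phytotoxic solvent blend were applied preemergence to seeds in loam-sand soil or postemergence to 1- to 4-leaf plants (2–18 cm) in peat-based medium.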

[2] = tested on: barnyardgrass (Echinochloa crus-galli); settings: for Plant response rating, Barnyardgrass: scale 0 to 100, 0 no effect, 100 complete control
In short: as §1

[3] = tested on: blackgrass (Alopecurus myosuroides); settings: for Plant response rating, Blackgrass: scale 0 to 100, 0 no effect, 100 complete control
In short: as §1

corn (Zea mays) = settings: for Plant response rating, Corn: scale 0 to 100, 0 no effect, 100 complete control
In short: as §1

[4] = tested on: crabgrass, large (large crabgrass, Digitaria sanguinalis); settings: for Plant response rating, Crabgrass, Large: scale 0 to 100, 0 no effect, 100 complete control
In short: as §1

[5] = tested on: foxtail, giant (giant foxtail, Setaria faberii); settings: for Plant response rating, Foxtail, Giant: scale 0 to 100, 0 no effect, 100 complete control
In short: as §1

[6] = tested on: johnsongrass (Sorghum halepense); settings: for Plant response rating, Johnsongrass: scale 0 to 100, 0 no effect, 100 complete control
In short: as §1

[7] = tested on: lambsquarters (Chenopodium album); settings: for Plant response rating, Lambsquarters: scale 0 to 100, 0 no effect, 100 complete control
In short: as §1

[8] = tested on: morningglory (Ipomoea coccinea); settings: for Plant response rating, Morningglory: scale 0 to 100, 0 no effect, 100 complete control
In short: as §1

[9] = tested on: nutsedge, yellow (yellow nutsedge, Cyperus esculentus); settings: for Plant response rating, Nutsedge, Yellow: scale 0 to 100, 0 no effect, 100 complete control
In short: as §1

[10] = tested on: oilseed rape (Brassica napus); settings: for Plant response rating, Oilseed Rape: scale 0 to 100, 0 no effect, 100 complete control
In short: as §1

[11] = tested on: pigweed (Amaranthus retroflexus); settings: for Plant response rating, Pigweed: scale 0 to 100, 0 no effect, 100 complete control
In short: as §1

[12] = tested on: ragweed (common ragweed, Ambrosia elatior); settings: for Plant response rating, Ragweed: scale 0 to 100, 0 no effect, 100 complete control
In short: as §1

[13] = tested on: ryegrass, Italian (Italian ryegrass, Lolium multiflorum); settings: for Plant response rating, Ryegrass, Italian: scale 0 to 100, 0 no effect, 100 complete control
In short: as §1

soybean (Glycine max) = settings: for Plant response rating, Soybean: scale 0 to 100, 0 no effect, 100 complete control
In short: as §1

[14] = tested on: velvetleaf (Abutilon theophrasti); settings: for Plant response rating, Velvetleaf: scale 0 to 100, 0 no effect, 100 complete control
In short: as §1

[15] = tested on: waterhemp (common waterhemp, Amaranthus rudis); settings: for Plant response rating, Waterhemp: scale 0 to 100, 0 no effect, 100 complete control
In short: as §1

[16] = tested on: wheat (winter wheat, Triticum aestivum); settings: for Plant response rating, Wheat: scale 0 to 100, 0 no effect, 100 complete control
In short: as §1

[17] = 31 g ai/ha, 0 is no effect, 100 is complete control

CN1CC(c2cccc(C(F)(F)F)c2)C(C(=O)Nc2ccccc2S(C)(=O)=O)C1=O (stereo not drawn) [Compound 637]
Plant response rating (scale of 0 to 100), Galium [1, 17]: 0
Plant response rating, Galium ([1]; 62 g ai/ha): 80
Plant response rating, Galium ([1]; 125 g ai/ha): 80
Plant response rating, Galium ([1]; 250 g ai/ha): 85
Plant response rating (scale of 0 to 100), Barnyardgrass [2, 17]: 90
Plant response rating, Barnyardgrass ([2]; 62 g ai/ha): 90
Plant response rating, Barnyardgrass ([2]; 125 g ai/ha): 95
Plant response rating, Barnyardgrass ([2]; 250 g ai/ha): 95
Plant response rating (scale of 0 to 100), Blackgrass [3, 17]: 70
Plant response rating, Blackgrass ([3]; 62 g ai/ha): 90
Plant response rating, Blackgrass ([3]; 125 g ai/ha): 90
Plant response rating, Blackgrass ([3]; 250 g ai/ha): 90
Plant response rating (scale of 0 to 100), Corn (corn (Zea mays); [17]): 35
Plant response rating, Corn (corn (Zea mays); 62 g ai/ha): 55
Plant response rating, Corn (corn (Zea mays); 125 g ai/ha): 75
Plant response rating, Corn (corn (Zea mays); 250 g ai/ha): 85
Plant response rating (scale of 0 to 100), Crabgrass, Large [4, 17]: 95
Plant response rating, Crabgrass, Large ([4]; 62 g ai/ha): 100
Plant response rating, Crabgrass, Large ([4]; 125 g ai/ha): 100
Plant response rating, Crabgrass, Large ([4]; 250 g ai/ha): 100
Plant response rating (scale of 0 to 100), Foxtail, Giant [5, 17]: 90
Plant response rating, Foxtail, Giant ([5]; 62 g ai/ha): 90
Plant response rating, Foxtail, Giant ([5]; 125 g ai/ha): 95
Plant response rating, Foxtail, Giant ([5]; 250 g ai/ha): 95
Plant response rating (scale of 0 to 100), Johnsongrass [6, 17]: 45
Plant response rating, Johnsongrass ([6]; 62 g ai/ha): 70
Plant response rating, Johnsongrass ([6]; 125 g ai/ha): 75
Plant response rating, Johnsongrass ([6]; 250 g ai/ha): 85
Plant response rating (scale of 0 to 100), Lambsquarters [7, 17]: 25
Plant response rating, Lambsquarters ([7]; 62 g ai/ha): 55
Plant response rating, Lambsquarters ([7]; 125 g ai/ha): 55
Plant response rating, Lambsquarters ([7]; 250 g ai/ha): 70
Plant response rating (scale of 0 to 100), Morningglory [8, 17]: 10
Plant response rating, Morningglory ([8]; 62 g ai/ha): 35
Plant response rating, Morningglory ([8]; 125 g ai/ha): 40
Plant response rating, Morningglory ([8]; 250 g ai/ha): 45
Plant response rating (scale of 0 to 100), Nutsedge, Yellow [9, 17]: 0
Plant response rating, Nutsedge, Yellow ([9]; 62 g ai/ha): 85
Plant response rating, Nutsedge, Yellow ([9]; 125 g ai/ha): 0
Plant response rating, Nutsedge, Yellow ([9]; 250 g ai/ha): 65
Plant response rating (scale of 0 to 100), Oilseed Rape [10, 17]: 10
Plant response rating, Oilseed Rape ([10]; 62 g ai/ha): 80
Plant response rating, Oilseed Rape ([10]; 125 g ai/ha): 85
Plant response rating, Oilseed Rape ([10]; 250 g ai/ha): 85
Plant response rating (scale of 0 to 100), Pigweed [11, 17]: 70
Plant response rating, Pigweed ([11]; 62 g ai/ha): 80
Plant response rating, Pigweed ([11]; 125 g ai/ha): 85
Plant response rating, Pigweed ([11]; 250 g ai/ha): 85
Plant response rating (scale of 0 to 100), Ragweed [12, 17]: 55
Plant response rating, Ragweed ([12]; 62 g ai/ha): 60
Plant response rating, Ragweed ([12]; 125 g ai/ha): 75
Plant response rating, Ragweed ([12]; 250 g ai/ha): 75
Plant response rating (scale of 0 to 100), Ryegrass, Italian [13, 17]: 55
Plant response rating, Ryegrass, Italian ([13]; 62 g ai/ha): 30
Plant response rating, Ryegrass, Italian ([13]; 125 g ai/ha): 30
Plant response rating, Ryegrass, Italian ([13]; 250 g ai/ha): 35
Plant response rating (scale of 0 to 100), Soybean (soybean (Glycine max); [17]): 0
Plant response rating, Soybean (soybean (Glycine max); 62 g ai/ha): 0
Plant response rating, Soybean (soybean (Glycine max); 125 g ai/ha): 0
Plant response rating, Soybean (soybean (Glycine max); 250 g ai/ha): 5
Plant response rating (scale of 0 to 100), Velvetleaf [14, 17]: 0
Plant response rating, Velvetleaf ([14]; 62 g ai/ha): 10
Plant response rating, Velvetleaf ([14]; 125 g ai/ha): 45
Plant response rating, Velvetleaf ([14]; 250 g ai/ha): 65
Plant response rating (scale of 0 to 100), Waterhemp [15, 17]: 75
Plant response rating, Waterhemp ([15]; 62 g ai/ha): 80
Plant response rating, Waterhemp ([15]; 125 g ai/ha): 85
Plant response rating, Waterhemp ([15]; 250 g ai/ha): 90
Plant response rating (scale of 0 to 100), Wheat [16, 17]: 60
Plant response rating, Wheat ([16]; 62 g ai/ha): 50
Plant response rating, Wheat ([16]; 125 g ai/ha): 90
Plant response rating, Wheat ([16]; 250 g ai/ha): 90
